{"source": "paper PMC7958448", "about": "“Bepridil is potent against SARS-CoV-2 in vitro” (Proceedings of the National Academy of Sciences of the …, 2021)", "origin": "cited, not measured here", "tested_on": "SARS-CoV-2 in Vero E6 cells", "conditions": "cited from earlier work"}
{"smiles": "CCC(CC)COC(=O)[C@H](C)N[P@](=O)(OC[C@H]1O[C@@](C#N)(c2ccc3c(N)ncnn23)[C@H](O)[C@@H]1O)Oc1ccccc1", "note": "[remdesivir]", "values": [{"measurement": "EC50", "value": 770, "unit": "nM"}]}
